pIC50: −log10 of the molar value. In brackets after ≈: the same amount, converted by molar mass. Several values for one entry are separate records, joined by “and”; a condition that tells them apart may be missing. Equal entries are not always repeated. Where two headings read alike, the source gives them in different places.
Columns and labels:
[1] = test system: Neuronal cortical cells; assay: Assay for test compound cytoxicity, MTS (Assay 3(d)); assay type: cell-based, mouse; settings: BL6J×129sv, mouse, 4 days
[2] = test system: Aβ in extract of tissue from post mortem human AD brain; assay: Human brain amyloid solubilisation assay (Assay 9, BAS); assay type: biochemical; settings: solubilising plaques relative to PBS
Description: Assay 9. Human Brain Amyloid Solubilisation Assay
This assay was performed in order to assess the ability of a test compound to mobilise Aβ from the insoluble to the soluble phase of an extract of tissue from post mortem human AD brain.
Up to 0.5 g of plaque-bearing cortex without meninges was homogenized using a DIAX 900 homogenizer (Heudolph and Co, Kelheim, Germany) or other suitable device for three 30-second periods at full speed in 2 ml of ice-cold phosphate-buffered saline, pH 7.4. To obtain the phosphate-buffered saline-extractable fraction, the homogenate was centrifuged at 100,000×g for 30 min and the supernatant removed. Alternatively, the tissue was freeze dried then pulverised to form a powder which was then weighed out into aliquots for extraction as above. Supernatant, either freeze-dried and resuspended or in unconcentrated form, was dissolved in 200 μl of Tris-Tricine sodium dodecyl sulfate (SDS) sample buffer pH 8.3 containing 8% SDS, 10% 2-mercaptoethanol. Aliquots (10 μl) were then boiled for 10 minutes before SDS-polyacrylamide gel electrophoresis. The insoluble fraction of the cortical samples was obtained by resuspending the initial pelleted sample in 1 ml of phosphate-buffered saline. A 50-μl aliquot of this suspension was then boiled in […] of sample buffer as above.
Tris-Tricine polyacrylamide gel electrophoresis was performed by loading appropriately diluted samples on to 10% to 20% gradient gels (Novex, San Diego, Calif.) followed by transfer on to 0.2-μm nitrocellulose membrane (Bio-Rad, Hercules, Calif.). Aβ was detected by using monoclonal antibody W02, which detects residues 5 through 8, […] (or another suitable antibody) in conjunction with horseradish peroxidase-conjugated rabbit anti-mouse IgG (Dako, Denmark), and visualized by using enhanced chemiluminescence (eg ECL; Amersham Life Science, Buckinghamshire, UK). Each gel included three lanes containing 0.5, 1, and 2 ng of synthetic Aβ40 (Keck Laboratory, Yale University, New Haven, Conn.) as reference standards.
Blot films were scanned by using a suitable imaging system such as the UVP gel documentation system, and densitometry performed using suitable software, eg UVP Labworks. The dynamic range of the film/scanner was determined by using a step tablet (No. 911ST600, Kodak, Rochester N.Y.), a calibrated film exposed by the manufacturer to provided steps of known increasing intensity. The quantifiable range of signal intensity for densitometric analysis of the mono- and dimeric Aβ bands was based on the comparison with a curve obtained by scanning and densitometry of the step tablet.
All samples were analysed at least twice, and gel loadings and dilutions were adjusted to fit within the quantifiable region of the standard curve. […] The insoluble Aβ being comprised of the pelletable fraction derived from the insoluble amyloid plaque from the above cortical samples and the soluble fraction comprising monomeric and/or oligomeric soluble Aβ.

[3] = test system: Neuronal cortical cells treated with Aβ1-42; assay: Assay for Aβ neurotoxicity and Aβ neuroprotection (Assay 3(c)); assay type: cell-based, mouse; settings: 20 uM Aβ1-42, 4 days, MTS
Description: Media was then replaced with Neurobasal media (Invitrogen Life Technologies) and B27 supplements (Invitrogen Life Technologies). Cultures were maintained at 37° C. in 5% CO2. Prior to experimentation, the culture medium was replaced with Neurobasal media and B27 minus antioxidants (Invitrogen Life Technologies).
(c) Assay for Aβ Neurotoxicity and Aβ Neuroprotection
Neuronal cortical cells were cultured for five days as per Assay 2. On day six the neurobasal (NB) media (Invitrogen Life Technologies) and B27 supplement (Invitrogen Life Technologies) were replaced with NB media and B27 supplement (no antioxidants). On day six, test compounds were individually added to the neuronal cell cultures:
Aβ was initially dissolved in 20 mM NaOH to a concentration of 1 mM and sonicated for 5 minutes. The peptide was then diluted in H2O and 10×PBS to a final concentration of 200 uM Aβ in 1×PBS. The peptide was again sonicated for 5 minutes and then spun at 14000 rpm for 5 min and transferred to a fresh tube.
The test compounds were dissolved in 100% DMSO to a concentration of 2.5 mM (10 mM if excess compound was weighed out per vial—then diluted to 2.5 mM). […] Test compounds were not added directly to cells, instead they were added to a 48 well ‘Drug Plate’ as comprised below:
The Drug Plate was incubated at 37° C. for 15 mins. 200 ul of each well was added in triplicate to the corresponding cell plate. The cell plate was incubated at 37 C, for 4 days.
On the 4th day after treating the cells the assay is completed by adding MTS to the cells.

[4] = biological target: T1, hydrogen peroxide generation by Aβ in the presence of copper (Homo sapiens, UniProt P05067); assay: Fluorometric H2O2 assay (Assay 1); assay type: biochemical; settings: Aβ 1-42 with Cu-Gly, DCF/HRP, 37 C 60 min; several values in one cell = repeat determinations; read-out: Peroxide IC50
T1 construct: The reaction solutions contained Aβ 1-42 at concentrations in the range of 50 nM to 1 μM
How it was run: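 Aβ1-42 (50 nM–1 μM) with Cu-glycine (2 Cu-Gly : 1 Aβ) and a reductant (dopamine 5 μM or ascorbic acid) was incubated 60 min at 37 °C in PBS pH 7.4 with test compound. H2O2 was detected with 100 μM deacetylated DCF and 0.1 μM HRP by fluorescence against H2O2 standards.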

[5] = test system: APP2576 transgenic mouse; assay: Transgenic mouse brain immunohistochemistry, plaque abundance (Assay 15); assay type: in vivo
Excerpt: Assay 15. Transgenic Mouse Brain Immunohistochemistry
The APP2576 transgenic mouse (Hsiao et al., 1996) as referred to in Assay 11 were utilized in this assay. The contralateral formalin-fixed mouse brain tissue was coronally cut. Sections (10 μm) were taken from the corresponding sites and treated with 80% formic acid for antigen retrieval. The primary antibody used was monoclonal antibody 1E8, which recognizes epitopes between residues 18 and 22 of Aβ (SmithKline Beecham, UK). Immunoreactivity was developed with secondary antibody linked to horseradish peroxidase (using a 3,39-diaminobenzidinechromagen) (Dako) and alkaline phosphatase (using 5-bromo-4-chloro 3-indoxyl phosphate and nitroblue tetrazolium chloride chromagen) (Dako). Plaque abundance per section was assessed by two operators blinded to treatment according to the following scale:
1=plaques present but very sparse
2=several plaques present
3=numerous plaques visible in restricted areas
4=plaques abundant and not restricted to any particular area.
Intermediate values eg 2.5 were assigned where applicable.
Students' t ‘test was used for comparisons between groups.

[6] = test system: APP2576 transgenic mouse; assay: Effect of administration of test compounds on Aβ deposits in transgenic animals (Assay 11); assay type: in vivo; parameters: concentration or dose not given beside the values; settings: transgenic mouse brains
[7] = Turbidimetric solubility measurements (Assay 13); assay type: physicochemical; settings: kinetic from dmso stock, 1% DMSO, nephelometry
Description: Turbidimetric Solubility Measurements
The solubility estimate was measured at both pH 2.0 and pH 6.5. This is within the pH range that can be anticipated along the proximal gastrointestinal tract in humans.
The compounds were dissolved in DMSO to appropriate concentrations and then spiked into either 0.01M HCl (approx. pH=2.0) or pH 6.5 isotonic phosphate buffer, the final DMSO concentration being 1%. Samples were then analysed via Nephelometry to determine a solubility range. [as per D. Bevan and R. S. Lloyd, Anal. Chem. 2000, 72, 1781-1787].

[8] = E Log D, chromatographic method (Assay 13); assay type: physicochemical; settings: SUPELCOSIL LC-ABZ column with octanol saturated mobile phase, pH 7.4; read-out: E Log D7.4
Description: Effective Log D values were measured using a chromatographic method employing a SUPELCOSIL LC-ABZ column using an octanol saturated mobile phase at pH 7.4.

T1 sequence (P05067 672-713 limits assumed): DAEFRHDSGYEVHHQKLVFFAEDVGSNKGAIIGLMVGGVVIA

SMILES | Test Compound Cytoxicity 0.1 um [1] [%] | Test Compound Cytoxicity 1 uM [1] | Test Compound Cytoxicity 10 uM [1] | BAS Score [2] | % inhibition Abeta toxicity [3] [%] | pIC50 [4] | Viable 10 uM [1] | % difference from control (sham treated animal) ([5]; plaque score) [%] | Mean plaque score ([5]; scale 0 to 4) | Insoluble fraction. % change compared with control. ([6]; insoluble Aβ) [%] | Soluble fraction. % change compared with control. ([6]; soluble Aβ) | solubility ([7]; aqueous buffer, pH 6.5 isotonic phosphate buffer, read-out: Solubility pH 6.5) [µg/mL] | solubility ([7]; simulated gastric fluid, 0.01M HCl (approx. pH 2.0), read-out: Solubility (μg/mL) 0.01M HCl) [µg/mL] | chromatographic logD [8]
COc1cccc(-c2cc(Cl)c3cccnc3c2O)c1 [compound 810] | 100 | 85 | 57 | + | 11 | < 5.00 |  |  |  |  |  |  |  | 
Cc1ccccc1-c1cc(Cl)c2cccnc2c1O [compound 854] | 94 | 81 | 36 | + | 22 | > 6.11 |  |  |  |  |  |  |  | 
O=C(NCCc1c[nH]cn1)c1ccc2cccc(O)c2n1 [compound 948] | 100 | 79 | 85 | + | 9 | 6.72 | 106.66 |  |  |  |  |  |  | 
O=C(NCCc1ccccn1)c1ccc2cccc(O)c2n1 [compound 950] | 95 | 88 | 89 | + | 5 | 6.60 | 92.8 |  |  |  |  |  |  | 
O=C(Nc1nccs1)c1ccc2cccc(O)c2n1 [compound 952] | 98 | 91 | 53 | + | 13 | > 6.09 | 99.52 |  |  |  |  |  |  | 
Cc1cnc(NC(=O)c2ccc3cccc(O)c3n2)s1 [compound 953] | 101 | 85 | 53 | + | 25 | > 5.37 and 6.21 | 67.8 |  |  |  |  |  |  | 
Oc1c(Cl)cc(Cl)c2ccc(-c3ccccn3)nc12 [compound 1052, 5,7-dichloro-8-hydroxy-2-(2-pyridyl)quinoline] |  | 63 | 32 | + | 19 |  |  | −8 | 3.2 | −22 | negligible | < 3.1 | 6.3 to 12.5 (≈ 21.6 to 42.9 µM) | 2.85

Reference: US9302993B2, “8-hydroxy quinoline derivatives” (PRANA BIOTECHNOLOGY LIMITED, priority 2002, dated 2016)
